Assays:
[1] = molecular target: T1, AaegIR75k3 (Aedes aegypti, UniProt A0A6I8U3Y9); assay: two-electrode voltage clamp, Xenopus oocytes expressing AaegIR75k3/AaegIR8a; assay type: cell-based
T1 construct: gene 5563739; with AaegIR8a
T1 sequence (A0A6I8U3Y9 20-624): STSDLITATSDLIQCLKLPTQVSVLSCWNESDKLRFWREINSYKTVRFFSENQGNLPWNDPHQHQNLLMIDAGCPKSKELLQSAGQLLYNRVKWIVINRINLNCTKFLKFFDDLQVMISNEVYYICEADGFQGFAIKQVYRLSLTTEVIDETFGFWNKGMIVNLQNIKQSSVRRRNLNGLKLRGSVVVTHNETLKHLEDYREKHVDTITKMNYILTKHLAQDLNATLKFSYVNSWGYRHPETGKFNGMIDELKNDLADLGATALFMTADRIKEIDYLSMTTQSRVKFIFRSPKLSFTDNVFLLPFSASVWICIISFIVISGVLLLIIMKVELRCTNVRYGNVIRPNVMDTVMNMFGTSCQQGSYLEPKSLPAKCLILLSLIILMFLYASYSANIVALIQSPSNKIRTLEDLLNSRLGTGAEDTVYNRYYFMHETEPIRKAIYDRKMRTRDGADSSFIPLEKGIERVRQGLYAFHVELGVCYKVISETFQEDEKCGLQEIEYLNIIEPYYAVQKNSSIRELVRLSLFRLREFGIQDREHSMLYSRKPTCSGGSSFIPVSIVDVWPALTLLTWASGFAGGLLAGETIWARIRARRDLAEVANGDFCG
T1 sequence (A0A1S4F362 23-913 partner): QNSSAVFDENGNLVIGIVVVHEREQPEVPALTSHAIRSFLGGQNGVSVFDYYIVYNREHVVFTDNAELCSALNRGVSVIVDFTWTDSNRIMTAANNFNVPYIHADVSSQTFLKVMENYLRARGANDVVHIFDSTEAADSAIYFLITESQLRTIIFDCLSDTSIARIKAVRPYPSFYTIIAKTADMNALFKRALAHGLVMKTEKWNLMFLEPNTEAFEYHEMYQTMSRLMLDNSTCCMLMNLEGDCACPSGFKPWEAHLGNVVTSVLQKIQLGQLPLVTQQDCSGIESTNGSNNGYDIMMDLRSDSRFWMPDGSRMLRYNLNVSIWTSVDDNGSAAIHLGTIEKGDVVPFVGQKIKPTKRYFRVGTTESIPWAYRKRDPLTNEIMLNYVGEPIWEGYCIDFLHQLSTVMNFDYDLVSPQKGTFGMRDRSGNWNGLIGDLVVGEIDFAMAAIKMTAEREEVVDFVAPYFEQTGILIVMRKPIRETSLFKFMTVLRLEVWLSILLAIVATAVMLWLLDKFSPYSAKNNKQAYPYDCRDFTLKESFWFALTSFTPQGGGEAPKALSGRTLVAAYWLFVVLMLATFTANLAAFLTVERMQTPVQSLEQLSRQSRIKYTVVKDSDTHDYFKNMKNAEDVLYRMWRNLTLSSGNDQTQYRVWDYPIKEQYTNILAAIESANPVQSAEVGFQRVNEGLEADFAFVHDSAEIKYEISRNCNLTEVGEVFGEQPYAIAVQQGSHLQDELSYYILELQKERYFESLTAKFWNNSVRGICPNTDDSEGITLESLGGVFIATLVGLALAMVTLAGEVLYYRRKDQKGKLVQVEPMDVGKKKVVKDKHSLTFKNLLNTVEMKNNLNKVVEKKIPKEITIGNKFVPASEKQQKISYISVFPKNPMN

[2] = molecular target: T2, AaegIR75k1 (Aedes aegypti, UniProt A0A6I8TFY9); assay: two-electrode voltage clamp, Xenopus oocytes expressing AaegIR75k1/AaegIR8a; assay type: cell-based
T2 construct: gene 5563741; with AaegIR8a
T2 sequence (A0A6I8TFY9 20-624): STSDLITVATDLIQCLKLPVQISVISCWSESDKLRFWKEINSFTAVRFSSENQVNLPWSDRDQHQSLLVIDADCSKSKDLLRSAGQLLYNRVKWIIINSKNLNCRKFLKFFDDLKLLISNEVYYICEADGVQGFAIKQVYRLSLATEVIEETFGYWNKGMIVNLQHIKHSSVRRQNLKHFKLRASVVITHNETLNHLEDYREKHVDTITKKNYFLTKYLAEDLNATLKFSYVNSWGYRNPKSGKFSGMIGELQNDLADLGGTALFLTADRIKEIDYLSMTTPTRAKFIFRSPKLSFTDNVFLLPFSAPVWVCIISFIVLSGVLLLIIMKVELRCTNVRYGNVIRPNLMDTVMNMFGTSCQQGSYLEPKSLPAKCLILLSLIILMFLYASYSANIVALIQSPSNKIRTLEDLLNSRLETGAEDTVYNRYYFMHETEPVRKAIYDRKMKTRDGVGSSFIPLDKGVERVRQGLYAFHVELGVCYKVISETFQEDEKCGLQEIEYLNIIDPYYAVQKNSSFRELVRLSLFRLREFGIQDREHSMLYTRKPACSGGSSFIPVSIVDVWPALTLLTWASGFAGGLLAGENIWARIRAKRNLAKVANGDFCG
T2 sequence (A0A1S4F362 23-913 partner): T1 sequence (A0A1S4F362 23-913 partner)

[3] = system: T3, AalbIR75e; assay: two-electrode voltage clamp, Xenopus oocytes expressing AalbIR75e/AalbIR8a; assay type: cell-based, Aedes albopictus
T3 construct: gene Ir75e; with AalbIR8a

[4] = molecular target: T2, AaegIR75k1; assay: two-electrode voltage clamp, Xenopus oocytes, single concentration […]; response about one quarter of nonanoic acid; assay type: cell-based

Row | SMILES | EC50 [1] [µM] | EC50 [2] [µM] | EC50 [3] [µM] | two-electrode voltage clamp, Xenopus oocytes, single concentration 10^-4 M; resp [4]
1 | CCCCCCCCC(=O)O [nonanoic acid] | 18.1 | 9.94 | 8.64 | –
2 | CCCCCCCC(=O)O [octanoic acid] | 25.2 | – | – | also maximally activated by nonanoic acid, with responses four-fold greater than for octanoic acid

Reference: article PMC10313001, “Carboxylic acids that drive mosquito attraction to humans activate ionotropic receptors” (PLOS Neglected Tropical Diseases, 2023)
